In article PMC4158450 (Bioorganic & medicinal chemistry letters, 2014):

Legend:
rA3AR = conditions: in words; cited from earlier work
hA3AR [1] = biological target: T1, hA3AR (Homo sapiens, UniProt P0DMS8); assay: hA3AR radioligand binding; conditions: in words, vs hA1AR and hA2AAR
T1 sequence (P0DMS8 1-318): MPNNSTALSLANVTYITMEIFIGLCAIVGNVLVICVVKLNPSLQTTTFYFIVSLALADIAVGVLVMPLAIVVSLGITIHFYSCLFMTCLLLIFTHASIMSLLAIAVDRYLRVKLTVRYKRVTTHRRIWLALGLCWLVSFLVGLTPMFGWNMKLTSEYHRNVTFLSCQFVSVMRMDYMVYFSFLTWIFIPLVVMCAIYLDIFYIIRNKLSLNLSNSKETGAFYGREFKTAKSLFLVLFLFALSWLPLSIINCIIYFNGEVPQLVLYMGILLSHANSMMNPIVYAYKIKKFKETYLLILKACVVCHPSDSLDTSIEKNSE

hA2AAR = hA2AAR (Homo sapiens, UniProt P29274); assay: hA2AAR radioligand binding
[2] = system: chronic neuropathic pain (mechanoallodynia), CCI model; assay: chronic constriction injury; format: in vivo, mouse; conditions: mice, oral administration
hA3AR [3] = biological target: T1, hA3AR; conditions: 1S,2R diastereoisomer of 2 vs 1R,2S isomer; cited from earlier work

Sequence of hA2AAR (P29274 whole entry): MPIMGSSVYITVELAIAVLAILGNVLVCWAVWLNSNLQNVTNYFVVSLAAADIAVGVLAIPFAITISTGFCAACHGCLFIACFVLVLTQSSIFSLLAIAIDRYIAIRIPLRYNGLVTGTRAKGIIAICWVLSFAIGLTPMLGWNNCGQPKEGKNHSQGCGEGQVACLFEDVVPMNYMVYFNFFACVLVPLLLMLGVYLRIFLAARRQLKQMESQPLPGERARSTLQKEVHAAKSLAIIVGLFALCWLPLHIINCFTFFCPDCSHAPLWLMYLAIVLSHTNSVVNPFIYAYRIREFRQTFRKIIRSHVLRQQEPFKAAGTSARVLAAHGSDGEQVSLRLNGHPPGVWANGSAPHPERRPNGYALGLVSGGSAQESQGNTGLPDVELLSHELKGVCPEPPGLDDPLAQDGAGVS

OC[C@H]1O[C@@H](n2cnc3c(NC4CC4c4ccccc4)nc(C#Cc4ccccc4)nc32)[C@H](O)[C@@H]1O (some centres unmarked) [Compound 1]
affinity at the rA3AR as compared to the hA3AR (rA3AR): substantially lower affinity

CNC(=O)[C@@]12C[C@@H]1[C@@H](n1cnc3c(NC4CC4c4ccc(F)c(F)c4)nc(C#Cc4ccccc4)nc31)[C@H](O)[C@@H]2O (some centres unmarked) [Compound 15]
selectivity for the A3AR (hA3AR [1]): very selective

CNC(=O)[C@@]12C[C@@H]1[C@@H](n1cnc3c(N)nc(C#Cc4ccccc4)nc31)[C@H](O)[C@@H]2O [Compound 9]
Ki (hA2AAR): ~1000 nM

CNC(=O)[C@@]12C[C@@H]1[C@@H](n1cnc3c(N[C@@H]4C[C@H]4c4ccc(F)c(F)c4)nc(C#Cc4ccccn4)nc31)[C@H](O)[C@@H]2O [Compound 18]
time of peak effect post-administration [2]: 1 h

O=[N+]([O-])c1cccc(C2CC2Nc2nc(C#Cc3ccccc3)nc3c2ncn3[C@@H]2O[C@H](CO)[C@@H](O)[C@H]2O)c1 (some centres unmarked) [Compound 2]
fold more potent in binding to the hA3AR than the corresponding 1R,2S isomer (hA3AR [3]): ~ 10 fold
